Results published in patent publication US20210113519A1, “Compositions and Methods for Modulating Permeability of Biological Barriers” (Carnegie Mellon University, priority 2018, published 2021).
“Also recorded” adds a separate entry of the source.

Key:
[1] = system: Caco-2 monolayers; assay: Calcein permeability assay through Caco-2 monolayers; type: cell-based, human; settings: for calcein permeability, known phenolic compounds from strawberry: 1 mg/mL; for calcein permeability, anthocyanidins: applied at 0.33 mg/ml, vs untreated control
Method: (§1) Caco-2 Cell Monolayers: Caco-2 cells were seeded in Basal Seeding Medium (BSM) on a collagen-coated, 24-Multiwell Insert […]® Plate at a concentration of 2×10^5 cells per well. The plate was incubated at 37° C. for one to two days. On the third day, the BSM was replaced with Enterocyte Differentiation Medium (EDM). The plate was then incubated one to two more days at 37° C. to allow complete formation of differentiated monolayers.
Permeability Assays: The paracellular diffusion markers were applied at 0.5 mM (calcein) or 0.1 mM (4 kDa FITC-Dextran), dissolved in EDM with the treatment extracts, to the apical side of fully-formed monolayers (TEER>200 Ω·cm^2). Fresh EDM with the markers was used as a negative control. After one hour, media in the basal chambers was sampled and examined for fluorescence at 495/515 nm. Application of calibration curves yielded an amount of mass transferred across each monolayer, which was used in the permeability equation Papp=ΔM/CaAΔt, where Papp is the apparent permeability through the monolayer, ΔM is the marker mass in the basal compartment, Ca is the apical marker concentration, A is the monolayer area, and Δt is the time between samples. Permeability measurements are expressed as the ratio of monolayer permeability at 3 hours after treatment addition to permeability before treatment addition, normalized to any change in negative control monolayers during that time.

[2] = system: Caco-2 intestinal epithelial cell monolayers; assay: TEER (transepithelial electrical resistance) assay on Caco-2 monolayers; type: cell-based, human
Method: as §1
TEERAssay: All TEER (transepithelial electrical resistance) values were measured using a voltohmmeter. Between each TEER measurement, the plate was incubated at 37° C. for a minimum of fifteen minutes to allow the cells to rest. To ensure that all the wells contained fully formed Caco-2 monolayers (>200 Ω·cm^2), initial TEER values were measured prior to treatment exposure. After adding the extracts to each well, TEER values were measured at defined intervals for a total of three hours. The treatments were then aspirated, and the cells rinsed with PBS before refilling the wells with fresh EDM. The plates were then left in the incubator at 37° C. for 24 hours, when recovery TEER values were measured.

[3] = system: intestinal barrier; assay: Oral FITC-DX4 (4 kDa dextran) absorption in mice after oral enhancer; type: in vivo; settings: pelargonidin 40 mg/kg oral, then FITC-DX4 600 mg/kg oral
Method: Examination of strawberry extract efficacy in vivo: For dextran efficacy studies, fasted mice were orally gavaged with 600 mg/kg STRB PPh solutions or 40 mg/kg pelargonidin solutions, then gavaged three hours later with 600 mg/kg FITC-DX4. Three hours after the dextran gavage, blood was collected and centrifuged. The serum was removed and examined for FITC concentration by reading for fluorescence on the plate reader and comparing to a unique calibration curve for each experiment. For larger macromolecule studies, 40 kDa dextran (FITC-DX40) was substituted at the same 600 mg/kg concentration.

[4] = system: intestinal epithelium; assay: Insulin delivery study: blood glucose in mice after oral enhancer and intestinal insulin injection; type: in vivo
Method: For insulin delivery studies, mice were orally gavaged with PBS (for control) or strawberry treatments (600 mg/kg STRB PPh or 40 mg/kg pelargonidin). One hour later, their initial blood sugar was measured and the animals were placed under anesthesia. Their intestines were surgically exposed, and insulin was injected at the predetermined dose (1 unit per kg body weight unless otherwise specified) into the duodenum of the small intestine, avoiding digestion in the stomach. The mice were closed and secured with tissue adhesive, then kept under anesthesia as their blood sugar levels were monitored each hour for five hours. For comparison to the current standard of insulin delivery, subcutaneous injections were given at 1 U/kg to additional mice, into the scruff on their necks. To determine areas above the curve for each mouse, trapezoidal integration was used to sum the area between known points on the blood glucose curve and the starting blood glucose value for the individual animal.

[5] = pelargonidin between 0.33 and 1.00 mg/mL

OC[C@H]1O[C@@H](Oc2cc3c(O)cc(O)cc3[o+]c2-c2ccc(O)cc2)[C@H](O)[C@@H](O)[C@@H]1O [callistephin, reference compound]
calcein permeability, known phenolic compounds from strawberry [1]: not an effective permeation enhancer

COc1cc(-c2[o+]c3cc(O)cc(O)c3cc2O)cc(OC)c1O.[Cl-] [malvidin]
calcein permeability, anthocyanidins [1]: increase the permeability of calcein; also recorded: statistically significant increases

Oc1ccc(-c2[o+]c3cc(O)cc(O)c3cc2O)cc1 [pelargonidin]
permeabilization and recovery of barrier function ([2]; 0.33 mg/ml): substantial yet reversible permeabilization
permeabilization and recovery of barrier function ([2]; 0.67 mg/ml): substantial yet reversible permeabilization
permeabilization and recovery of barrier function ([2]; 1 mg/ml): opened the tight junctions beyond their ability to recover barrier function
recovery of barrier function within 24 hours (TEER) ([2]; pelargonidin 0.33, 0.67 and 1.00 mg/mL): only the two lower concentrations recovered their barrier function
TEER response (opening of tight junctions) [2, 5]: dose-dependent opening of the tight junctions
calcein permeability, known phenolic compounds from strawberry [1]: effective permeation enhancer; also recorded: significantly increased the permeability of calcein
calcein permeability, anthocyanidins [1]: increase the permeability of calcein; also recorded: statistically significant increases
improvement of calcein permeability, dose response [1, 5]: dose dependence was also evident
FITC-DX4 absorption across the intestinal barrier vs saline (PBS) gavage [3]: doubled
duration of hypoglycemia vs 1 U/kg subcutaneous insulin ([4]; pelargonidin 40 mg/kg oral + 1 U/kg intestinal insulin): sustained hypoglycemia several hours longer
total pharmacodynamic effect (area above the curve) relative to subcutaneous insulin ([4]; pelargonidin 40 mg/kg oral + 1 U/kg intestinal insulin vs 1 U/kg subcutaneous): approximately 1.3 times
relative bioactivity value ([4]; pelargonidin 40 mg/kg oral + 1 U/kg intestinal insulin vs 1 U/kg subcutaneous insulin, AAC): 130%
blood glucose response to intestinal insulin ([4]; pelargonidin 40 mg/kg oral, one hour later 1 U/kg insulin intestinal injection, vs saline gavage): substantial reduction in blood glucose; also recorded: sustained reductions in blood glucose levels

COc1cc(-c2[o+]c3cc(O)cc(O)c3cc2O)cc(O)c1O [petunidin]
calcein permeability, anthocyanidins [1]: increase the permeability of calcein; also recorded: statistically significant increases

insulin: bovine pancreas insulin [reference compound]
blood glucose response to subcutaneous insulin ([4]; 1 U/kg subcutaneous insulin dose): pronounced but brief response
